The record followed here is patent publication US5030427A, “Gallium purification” (Monsanto Company, priority 1988, dated 1991).

Molecules are shown by their SMILES.

This data set in a line: Aqueous solubilities of N-alkylalkano and N-H hydroxamic acids (25° C.). The data set is classed as physicochemical. The text has this: It is desirable that the extractant for metals have low solubility in water in order to avoid loss of extractant in aqueous media. In Table 1, the aqueous solubilities of a number of hydroxamic acids are reported.

`CCCCCCCCCC(=O)N(C)O` [N-methyldecanohydroxamic acid]: for the setting “aqueous, 25° C.”, the “SOLUBILITY (25° C.)” value is on record as 5.48 × 10^-4 molarity.

As to `CCCCCCCCC(=O)N(C)O` [N-methylnonanohydroxamic acid], for the setting “aqueous media”, the “aqueous solubility (in words)” value is listed as “relatively high aqueous solubility”.
